Assay results: patent US11759412B2, “Personal care compositions with glutathione precursor comprising 4-substituted resorcinols and amino acids” (Conopco, Inc., priority 2016, dated 2023)

Experiments:
Assay type in all cases: cell-based
[1] = test system: Human Keratinocytes; experiment: Cell Viability Assay (CCK-8, menadione); conditions: for cell viability (% vehicle of control): Table 3B
Protocol: Human Keratinocytes (Promocell, Heidelberg, Germany) were maintained in EpiLife® keratinocyte medium containing 60 uM calcium chloride and 1% Human Keratinocyte Growth Supplement (HKGS). The medium was refreshed every other day. Subsequently, cells were trypsinized at 90% confluency and seeded at a density of 2×10^4 per well into 96-well transparent tissue culture plates. On the second day after seeding, cell medium was replaced with treatments as described above in ROS assay section. After 18 hours, […] (CCK-8) reagent (Dojindo, Kumamoto, Japan) was diluted 1:10 in HBSS and incubated with cells for 4 h at 37° C. in a humidified incubator. Optical absorption at 450 nm was measured using a Tecan Safire2 plate reader. Relative viability was calculated with normalization based on the vehicle control treatment, which was set to 100%.
Where indicated, percent protection was calculated as a comparison to menadione alone treatment, using the measured relative absorbance units in the following equation: […]

[2] = test system: Aged Human Keratinocytes; experiment: Glutathione Assay (total glutathione, GSH-GSSG Glo, menadione challenge); conditions: for synergistic increase in GSH synthesis, combination with GAP amino acids vs either alone: resorcinol/test reagent combined with GAP, + menadione
Protocol: Aged Human Keratinocytes (Cascade Biologics, now ThermoFisher Scientific, Waltham, Mass.) were maintained in Epi Life® medium containing 60 uM calcium chloride and 1% Human Keratinocyte Growth Supplement (both media components from ThermoFisher Scientific) in a humidified incubator with an atmosphere containing 5% CO2 at 37° C. The medium was refreshed every 2-3 days. Subsequently, cells were trypsinized at 90% confluency and seeded at a density of 1×10^4 per well into 96-well plates with white wall and clear bottom. One or two days after seeding, cell medium was replaced with Hank's Balanced Salt Solution (HBSS), and keratinocytes were pre-treated with GAP (or 0.12-0.240 mM sodium hydroxide vehicle control, pH 7.5) alone or in combination with additional test reagents described above or L-cystine esters alone for 1-2 hours. The concentration of all amino acids constituting the GAP mixture used in this assay are designated in the data tables, and fully described in the abbreviations list below.
After one or two hours of pre-treatment with GAP or additional test reagents, alone or in combination, keratinocytes were then challenged with 25 uM menadione (Sigma-Aldrich), a known inducer of oxidative stress. After 18-20 hours, cells were harvested and analyzed for total glutathione levels using a commercially available kit (GSH-GSSG GLo Assay, Promega), a luminescence-based system for the detection and quantification of total glutathione in cultured cells. In summary, after cell treatment, the media was removed and replaced with a cell lysis reagent for 5 minutes at 20-25° C.; note, all remaining steps were also conducted at 20-25° C. Next, a luciferase generation reagent was added to each well and incubated for 30 minutes. Following this step, a luciferin detection reagent was added to each well and plates were incubated for 15 minutes. Finally, plates were then read for luminescence in a FlexStation 3 plate reader (Molecular Devices). Total glutathione levels were calculated after interpolation of glutathione concentrations from a standard curve. Experimental conditions were typically conducted in at least triplicate determinations. Statistical significance was calculated using 1-way ANOVA. Percent protection was calculated by using the calculated glutathione levels from each experiment in the following equation: […]

[3] = test system: Human Keratinocytes; experiment: Reactive Oxygen Species (ROS) Assay (CellROX green, menadione); conditions: for synergistic decrease in ROS production, combination with GAP amino acids vs either alone: resorcinol/test reagent combined with GAP
Protocol: Human Keratinocytes (Promocell, Heidelberg, Germany) were maintained in EpiLife® keratinocyte medium containing 60 uM calcium chloride and 1% Human Keratinocyte Growth Supplement (HKGS) in a humidified incubator with an atmosphere containing 5% CO2 at 37° C. The medium was refreshed every other day. Subsequently, cells were trypsinized at 90% confluency and seeded at a density of 1-2×10^4 per well into 96-well plates with black wall and clear bottom. On the second day after seeding, cell medium was replaced with Hank's Balanced Salt Solution (HBSS) with or without menadione (10-25 uM), GAP (typically at 49 uM pyroglutamic acid, 60 uM cystine, 194 uM glycine), GAP vehicle (0.2 mM NaOH, pH 7.5), above-described additional test reagents, or combinations of GAP with additional test reagents or L-cystine esters alone, and incubated for additional 18 hours. For ROS detection, CellROX green (Life Tech, Thermo Fisher Scientific, Rockford, USA) reagent was added into each well to a final concentration of 15-25 uM and incubated for additional 2-4 hours at 37° C. in a humidified incubator. The ROS fluorescence was detected using a Tecan microplate reader (Excitation/Emission=490/525). Relative ROS production was calculated with normalization based on the vehicle control treatment which was set to 100%. Where indicated, percent protection was calculated as a comparison to menadione alone treatment, using the measured relative fluorescent units in the following equation: […]
ROS levels were evaluated together with cell viability because it is possible to get a false negative for ROS if treatment is so toxic, that at the time of assay, cells are dead (and there are no longer any detectable ROS). Decrease in ROS levels is meaningful if cells are still viable.

[4] = Table 3A, Olivetol or 3-hydroxytyrosol 10 uM + menadione
[5] = Table 3A, Olivetol or 3-hydroxytyrosol 20 uM + menadione
[6] = Table 3A, Olivetol or 3-hydroxytyrosol 50 uM + menadione
[7] = Table 2E, BR 20 uM where present, + menadione
[8] = Table 1B, BR 50 uM where present, + menadione 25 uM
[9] = Table 2B, resorcinol (BR or IPR) 10 uM + menadione
[10] = Table 2B, resorcinol (BR or IPR) 50 uM + menadione
[11] = Table 2B, resorcinol (BR or IPR) 100 uM + menadione
[12] = Table 1H, CDME 20 uM + menadione
[13] = Table 1H, CDME 40 uM + menadione
[14] = Table 1H, CDME 80 uM + menadione
[15] = Table 1H, CDME 160 uM + menadione
[16] = Table 1F, DTBC 20 uM + menadione

OCCc1ccc(O)c(O)c1 [3-hydroxytyrosol]
cell viability (% vehicle of control) ([1]; 3-hydroxytyrosol 10 uM + menadione): 16.8% | cell viability (% vehicle of control) ([1]; 3-hydroxytyrosol 20 uM + menadione): 16.5% | % Protection (improvement vs vehicle control + menadione) [2, 4]: −3% | Glutathione Synthesis, Mean (uM glutathione) [2, 4]: 0.07 µM | % Protection (improvement vs vehicle control + menadione) [2, 5]: −5% | Glutathione Synthesis, Mean (uM glutathione) [2, 5]: 0.03 µM | % Protection (improvement vs vehicle control + menadione) [2, 6]: −4% | Glutathione Synthesis, Mean (uM glutathione) [2, 6]: 0.04 µM | synergistic increase in GSH synthesis, combination with GAP amino acids vs either alone [2]: no synergistic effect | ROS production (% of vehicle control) ([3]; Table 3B, 3-hydroxytyrosol 10 uM + menadione): 241.6% | ROS production (% of vehicle control) ([3]; Table 3B, 3-hydroxytyrosol 20 uM + menadione): 229.9^1% | synergistic decrease in ROS production, combination with GAP amino acids vs either alone ([3]; + menadione): no synergistic effect

CCCCc1ccc(O)cc1O [BR, 4-butylresorcinol]
% Protection (improvement vs vehicle control + menadione), cell viability [1, 7]: 11.75^3% | Cell viability (% of control) [1, 7]: 74.1^3% | % Protection (improvement vs. vehicle control + menadione) [2, 8]: −1^1% | Glutathione Synthesis, Mean (uM glutathione) [2, 8]: 0.06^1 uM | % Protection (improvement vs. vehicle control + menadione) [2, 9]: 5% | Glutathione Synthesis, Mean (uM glutathione) [2, 9]: 0.10 µM | % Protection (improvement vs. vehicle control + menadione) [2, 10]: 3% | Glutathione Synthesis, Mean (uM glutathione) [2, 10]: 0.07 µM | % Protection (improvement vs. vehicle control + menadione) [2, 11]: 6% | Glutathione Synthesis, Mean (uM glutathione) [2, 11]: 0.13 µM | synergistic increase in GSH synthesis, combination with GAP amino acids vs either alone [2]: synergistic increase | % protection (improvement vs vehicle control + menadione), ROS [3, 7]: 0.95% | Mean ROS production (% of vehicle control) [3, 7]: 220.7% | synergistic decrease in ROS production, combination with GAP amino acids vs either alone ([3]; + menadione): synergistic decrease

COC(=O)[C@@H](N)CSSC[C@H](N)C(=O)OC.Cl.Cl [CDME, L-Cystine dimethyl ester dihydrochloride]
% protection (improvement vs. vehicle control + menadione), cell viability [1, 12]: 30.2^1,2% | Cell viability (% of vehicle control) [1, 12]: 90.9^1,2% | % protection (improvement vs. vehicle control + menadione), cell viability [1, 13]: 33.4^1,2% | Cell viability (% of vehicle control) [1, 13]: 93.1^1,2% | % protection (improvement vs. vehicle control + menadione), cell viability [1, 14]: 24.6^1,2% | Cell viability (% of vehicle control) [1, 14]: 87.0^1,2% | % protection (improvement vs. vehicle control + menadione), cell viability [1, 15]: 51.7^1,2% | Cell viability (% of vehicle control) [1, 15]: 105.9^1,2% | % Protection (improvement vs. vehicle control + menadione), ROS [3, 12]: 18.2^2% | ROS production (% of vehicle control) [3, 12]: 107.8^2% | % Protection (improvement vs. vehicle control + menadione), ROS [3, 13]: 15.5^1,2% | ROS production (% of vehicle control) [3, 13]: 111.3^1,2% | % Protection (improvement vs. vehicle control + menadione), ROS [3, 14]: 13.3^1,2% | ROS production (% of vehicle control) [3, 14]: 114.3^1,2% | % Protection (improvement vs. vehicle control + menadione), ROS [3, 15]: 25.7^2% | ROS production (% of vehicle control) [3, 15]: 97.9^2%

CCOC(=O)[C@@H](N)CSSC[C@H](N)C(=O)OCC.Cl.Cl [DEC, Diethyl L-cystinate dihydrochloride]
% Protection (improvement vs. vehicle control + menadione), ROS ([3]; Table 1D, DEC 20 uM + menadione): 38.0^1,2%

CC(C)(C)OC(=O)[C@@H](N)CSSC[C@H](N)C(=O)OC(C)(C)C.Cl.Cl [DTBC, Ditert-butyl L-cystinate dihydrochloride]
% protection (improvement vs. vehicle control + menadione), cell viability [1, 16]: 6.0^1% | % protection (improvement vs. vehicle control + menadione), cell viability ([1]; Table 1F, DTBC 40 uM + menadione): 3.0^1% | % protection (improvement vs. vehicle control + menadione), cell viability ([1]; Table 1F, DTBC 80 uM + menadione): −0.1^1% | % Protection (improvement vs. vehicle control + menadione), ROS [3, 16]: 2.2%
